{
  "source": "patent US20220390435A1",
  "about": "“COMPOSITIONS FOR PATIENT SPECIFIC IMMUNOTHERAPY” (VITROSCAN B.V., priority 2019, published 2022)",
  "format_in_all_cases": "cell-based, human",
  "key": {"[1]": {"tested_on": "ovarian cancer tumoroids", "assay": "ex vivo 3D patient-derived tumour culture with 3D imaging, ovarian cancer samples", "settings": "for area size of small objects (smaller than 160 μm^2, immune cells): same ovarian tumour sample as FIG. 4, FIG. 5"}, "[2]": {"tested_on": "patient derived tumour cell aggregates", "assay": "Selection Factor (tumoroids' area decrease) across patient samples", "settings": "for immune reaction reducing the number of tumour cells (Selection Factor across samples): FIGS. 8 and 9, alone or in combination, immune system of a naïve patient sample only"}, "[3]": {"tested_on": "IFN-γ", "assay": "IFN-γ production in treated patient-derived cultures", "settings": "FIG. 7; IFN-γ is secreted by activated T-cells"}, "[4]": {"tested_on": "Mesothelioma tumour sample", "assay": "ex vivo 3D patient-derived tumour culture with 3D imaging, mesothelioma sample", "settings": "FIG. 3"}, "[5]": {"tested_on": "lung tumour sample", "assay": "ex vivo 3D patient-derived tumour culture with 3D imaging, lung tumour sample", "settings": "FIG. 6"}},
  "data": [
    {"molecule": "Nc1ncnc2c1ncn2[C@@H]1O[C@@H]2COP(=O)([S-])O[C@@H]3[C@H](O)[C@@H](COP([O-])(=S)O[C@H]2[C@H]1O)O[C@H]3n1cnc2c(N)ncnc21.[Na+].[Na+]", "note": "(stereo partly shown) [ADU-S100]", "values": [
      {"measurement": "area size of small objects (smaller than 160 μm^2, immune cells)", "setting": "[1]", "result": "area size increase of small objects"}
    ]},
    {"molecule": "O=C(c1cc(Cc2n[nH]c(=O)c3ccccc23)ccc1F)N1CCN(C(=O)C2CC2)CC1", "note": "[olaparib]", "values": [
      {"measurement": "immune reaction reducing the number of tumour cells (Selection Factor across samples)", "setting": "[2]", "result": "able to start an immune reaction that effectively reduced the number of tumour cells"}
    ]},
    {"molecule": "ipilimumab", "values": [
      {"measurement": "immune reaction reducing the number of tumour cells (Selection Factor across samples)", "setting": "[2]", "result": "able to start an immune reaction that effectively reduced the number of tumour cells"},
      {"measurement": "in-vitro Selection Factor", "setting": "[2]; subset of patients that benefit from treatment", "result": "below −30%"},
      {"measurement": "activating native immune cells to kill ovarian cancer tumoroids (total area of objects larger than 422 μm^2 / smaller than 160 μm^2)", "setting": "[1]; ovarian cancer samples of FIG. 1", "result": "showed effectiveness in activating immune cells"},
      {"measurement": "activating native immune cells to kill tumoroids", "setting": "[1]; ovarian cancer samples of FIG. 2", "result": "does not show effectiveness"},
      {"measurement": "IFN-γ production", "setting": "[3]", "result": "increased"},
      {"measurement": "immune-mediated tumoroid killing effect", "setting": "[4]", "result": "showing immune-mediated tumoroid killing effect"},
      {"measurement": "killing effect in a lung cancer tumour sample", "setting": "[5]", "result": "killing effect in a lung cancer tumour sample"}
    ]},
    {"molecule": "nivolumab", "values": [
      {"measurement": "killing effect in a lung cancer tumour sample", "setting": "[5]", "result": "killing effect in a lung cancer tumour sample"}
    ]},
    {"molecule": "pembrolizumab", "values": [
      {"measurement": "killing effect, i.e. area size reduction of tumoroid clusters", "setting": "[1]; ovarian tumour sample, FIG. 4", "result": "killing effect, i.e. area size reduction of tumoroid clusters"},
      {"measurement": "area size of small objects (smaller than 160 μm^2, immune cells)", "setting": "[1]", "result": "area size increase of small objects"},
      {"measurement": "killing effect in a lung cancer tumour sample", "setting": "[5]", "result": "killing effect in a lung cancer tumour sample"}
    ]}
  ]
}
